Laboratory results: patent US20260092061A1, “COMPOUNDS FOR TARGETED PROTEIN DEGRADATION” (Amphista Therapeutics Limited, priority 2022, published 2026)

Target: T1, BRD9 (Homo sapiens, UniProt Q9H8M2)
T1 sequence (Q9H8M2 1-597): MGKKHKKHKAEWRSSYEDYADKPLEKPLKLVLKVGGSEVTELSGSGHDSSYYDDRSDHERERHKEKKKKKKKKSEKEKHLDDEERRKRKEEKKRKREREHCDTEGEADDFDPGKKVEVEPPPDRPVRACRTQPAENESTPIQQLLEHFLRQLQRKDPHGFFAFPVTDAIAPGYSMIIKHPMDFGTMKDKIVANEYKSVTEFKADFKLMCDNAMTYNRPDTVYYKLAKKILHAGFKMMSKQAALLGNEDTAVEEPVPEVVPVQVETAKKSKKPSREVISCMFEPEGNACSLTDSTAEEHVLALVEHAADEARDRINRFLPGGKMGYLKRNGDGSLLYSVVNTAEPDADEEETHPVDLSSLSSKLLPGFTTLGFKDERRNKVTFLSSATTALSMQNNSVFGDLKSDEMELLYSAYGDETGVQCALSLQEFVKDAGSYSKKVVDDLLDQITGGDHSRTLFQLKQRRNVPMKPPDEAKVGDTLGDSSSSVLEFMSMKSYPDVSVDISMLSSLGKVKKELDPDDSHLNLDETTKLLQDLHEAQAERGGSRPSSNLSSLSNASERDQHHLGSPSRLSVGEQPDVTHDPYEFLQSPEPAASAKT
Experiment: Degradation of BRD9 (IF), immunofluorescence in MV4-11 cells, 24 hours (Assay Protocol 2)
Format: cell-based
Set-up: A suspension of MV4-11 cells (ATCC CRL-9591) was prepared; host or cells: MV4-11
Conditions: BRD9 degradation; for DC50: Assay protocol 2, read-out: DC50; for Dmax: MV4-11, Assay protocol 2, read-out: Dmax
Procedure, shortened: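 MV4-11 cells treated with compound 24 h at 37° C., then fixed, permeabilised and immunostained for BRD9 (anti-BRD9 E4Q3F, Alexa 647 secondary, Hoechst counterstain). High-content imaging quantified nuclear BRD9 signal; % BRD9 remaining normalised to DMSO and 100 nM CFT-8634 controls.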

Compound	DC50 [nM]	Dmax [%]
COc1cc(-c2cn(C)c(=O)c(C)c2C)cc(OC)c1CN1CCN(Cc2cccc3c2CCN(C(=O)/C(C#N)=C/c2cccc(Br)n2)C3C)C(C)(C)C1 (mixture of isomers) [Compound B109, (E/Z)-3-(6-bromopyridin-2-yl)-2-(5-((4-(2,6-dimethoxy-4-(1,4,5-trimethyl-6-oxo-1,6-dihydropyridin-3-yl)benzyl)-2,2-dimethylpiperazin-1-yl)methyl)-1-methyl-1,2,3,4-tetrahydroisoquinoline-2-carbonyl)acrylonitrile]	1.25 to 10	> 75
COc1cc(-c2cn(C)c(=O)c(C)c2C)cc(OC)c1CN1C[C@H](C)N(Cc2cccc3c2CCN(C(=O)/C(C#N)=C/c2cccc(Br)n2)C3C)[C@@H](C)C1 (mixture of isomers) [Compound B110, (E/Z)-3-(6-bromopyridin-2-yl)-2-(5-(((2S,6S)-4-(2,6-dimethoxy-4-(1,4,5-trimethyl-6-oxo-1,6-dihydropyridin-3-yl)benzyl)-2,6-dimethylpiperazin-1-yl)methyl)-1-methyl-1,2,3,4-tetrahydroisoquinoline-2-carbonyl)acrylonitrile]	25 to 1000	40 to 70
COc1cc(-c2cn(C)c(=O)c(C)c2C)cc(OC)c1CN1C[C@@H](C)N(Cc2cccc3c2CCN(C(=O)/C(C#N)=C/C(C)(C)C)C3C)C[C@@H]1C (mixture of isomers) [Compound B111, (E/Z)-2-(5-(((2R,5S)-4-(2,6-dimethoxy-4-(1,4,5-trimethyl-6-oxo-1,6-dihydropyridin-3-yl)benzyl)-2,5-dimethylpiperazin-1-yl)methyl)-1-methyl-1,2,3,4-tetrahydroisoquinoline-2-carbonyl)-4,4-dimethylpent-2-enenitrile]	10 to 25	> 75
COc1cc(-c2cn(C)c(=O)c(C)c2C)cc(OC)c1CN1CCN(Cc2cccc3c2CCN(C(=O)/C(C#N)=C/C(C)(C)C)C3C)C(=O)C1(C)C (mixture of isomers) [Compound B112, (E/Z)-2-(5-((4-(2,6-dimethoxy-4-(1,4,5-trimethyl-6-oxo-1,6-dihydropyridin-3-yl)benzyl)-3,3-dimethyl-2-oxopiperazin-1-yl)methyl)-1-methyl-1,2,3,4-tetrahydroisoquinoline-2-carbonyl)-4,4-dimethylpent-2-enenitrile]	10 to 25	> 75
CC[C@H]1CN(Cc2c(OC)cc(-c3cn(C)c(=O)c(C)c3C)cc2OC)CCN1Cc1cccc2c1CCN(C(=O)/C(C#N)=C/C(C)(C)C)C2C (mixture of isomers) [Compound B113, (E/Z)-2-(5-(((S)-4-(2,6-dimethoxy-4-(1,4,5-trimethyl-6-oxo-1,6-dihydropyridin-3-yl)benzyl)-2-ethylpiperazin-1-yl)methyl)-1-methyl-1,2,3,4-tetrahydroisoquinoline-2-carbonyl)-4,4-dimethylpent-2-enenitrile]	1.25 to 10	> 75
COc1cc(-c2cn(C)c(=O)c(C)c2C)cc(OC)c1CN1[C@H](C)CN(Cc2cccc3c2CCN(C(=O)/C(C#N)=C/C(C)(C)C)C3C)C[C@@H]1C (mixture of isomers) [Compound B114, (E/Z)-2-(5-(((3S,5R)-4-(2,6-dimethoxy-4-(1,4,5-trimethyl-6-oxo-1,6-dihydropyridin-3-yl)benzyl)-3,5-dimethylpiperazin-1-yl)methyl)-1-methyl-1,2,3,4-tetrahydroisoquinoline-2-carbonyl)-4,4-dimethylpent-2-enenitrile]	1.25 to 10	> 75
COc1cc(-c2cn(C)c(=O)c(C)c2C)cc(OC)c1CN1C[C@@H](C)N(Cc2cccc3c2CCN(C(=O)/C(C#N)=C/C(C)(C)C)C3C)C[C@H]1C (mixture of isomers) [Compound B115, (E/Z)-2-(5-(((2R,5R)-4-(2,6-dimethoxy-4-(1,4,5-trimethyl-6-oxo-1,6-dihydropyridin-3-yl)benzyl)-2,5-dimethylpiperazin-1-yl)methyl)-1-methyl-1,2,3,4-tetrahydroisoquinoline-2-carbonyl)-4,4-dimethylpent-2-enenitrile]	1.25 to 10	> 75
